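Each compound was tested at five concentrations against cells in 96-well plates for 48 hours. At the GI50, growth is halved.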 Active and inactive are the calls of the source. No stated cut-off is given here; in the data, active = GI50 up to about 1.1 µM and inactive = higher. Where a SMILES comes first, the peptide text is derived from it. The star is where a group is joined. Boc = CC(C)(C)OC(=O)*; OBn = c1ccc(CO*)cc1
Legend:
Test in all cases: NCI anticancer screen, dose series, 48 h
786-0 = system: 786-0
A498 = system: A498
A549 = system: A549
ACHN = system: ACHN
BT-549 = system: BT-549
CAKI-1 = system: CAKI-1
CCRF-CEM = system: CCRF-CEM
COLO 205 = system: COLO 205
DU-145 = system: DU-145
EKVX = system: EKVX
HCC 2998 = system: HCC 2998
HCT-116 = system: HCT-116
HCT-15 = system: HCT-15
HOP-62 = system: HOP-62
HOP-92 = system: HOP-92
IGROV-1 = system: IGROV-1
K562 = system: K562
KM12 = system: KM12
LOX IMVI = system: LOX IMVI
M14 = system: M14
MCF7 = system: MCF7
MDA-MB-231 = system: MDA-MB-231
MDA-MB-435 = system: MDA-MB-435
MDA-N = system: MDA-N
MOLT-4 = system: MOLT-4
Malme-3M = system: Malme-3M
NCI-H226 = system: NCI-H226
NCI-H23 = system: NCI-H23
NCI-H460 = system: NCI-H460
NCI-H522 = system: NCI-H522
NCI/ADR-RES = system: NCI/ADR-RES
OVCAR-3 = system: OVCAR-3
OVCAR-4 = system: OVCAR-4
OVCAR-5 = system: OVCAR-5
PC-3 = system: PC-3
RPMI-8226 = system: RPMI-8226
RXF 393 = system: RXF 393
SF-268 = system: SF-268
SF-295 = system: SF-295
SF-539 = system: SF-539
SK-MEL-28 = system: SK-MEL-28
SK-MEL-2 = system: SK-MEL-2
SK-MEL-5 = system: SK-MEL-5
SK-OV-3 = system: SK-OV-3
SN12C = system: SN12C
SNB-19 = system: SNB-19
SW-620 = system: SW-620
T47D = system: T47D
TK-10 = system: TK-10
U-251 = system: U-251
UACC-257 = system: UACC-257
UACC-62 = system: UACC-62
UO-31 = system: UO-31
HT-29 = system: HT-29
OVCAR-8 = system: OVCAR-8
SNB-75 = system: SNB-75
SR = system: SR

## O=C1Nc2ccccc2[C@]12C[C@H]2c1ccccn1
786-0
  GI50: > 100 µM (inactive)
A498
  GI50: > 100 µM (inactive)
A549
  GI50: > 100 µM (inactive)
ACHN
  GI50: > 100 µM (inactive)
BT-549
  GI50: > 100 µM (inactive)
CAKI-1
  GI50: > 100 µM (inactive)
CCRF-CEM
  GI50: > 100 µM (inactive)
COLO 205
  GI50: > 100 µM (inactive)
DU-145
  GI50: > 100 µM (inactive)
EKVX
  GI50: > 100 µM (inactive)
HCC 2998
  GI50: > 100 µM (inactive)
HCT-116
  GI50: > 100 µM (inactive)
HCT-15
  GI50: > 100 µM
HOP-62
  GI50: > 100 µM (inactive)
HOP-92
  GI50: > 100 µM (inactive)
IGROV-1
  GI50: > 100 µM (inactive)
K562
  GI50: > 100 µM (inactive)
KM12
  GI50: > 100 µM (inactive)
LOX IMVI
  GI50: > 100 µM (inactive)
M14
  GI50: > 100 µM (inactive)
MCF7
  GI50: > 100 µM (inactive)
MDA-MB-231
  GI50: > 100 µM (inactive)
MDA-MB-435
  GI50: > 100 µM (inactive)
MDA-N
  GI50: > 100 µM (inactive)
MOLT-4
  GI50: > 100 µM (inactive)
Malme-3M
  GI50: > 100 µM (inactive)
NCI-H226
  GI50: 62.8 µM (inactive)
NCI-H23
  GI50: > 100 µM (inactive)
NCI-H460
  GI50: > 100 µM (inactive)
NCI-H522
  GI50: > 100 µM (inactive)
NCI/ADR-RES
  GI50: > 100 µM (inactive)
OVCAR-3
  GI50: > 100 µM (inactive)
OVCAR-4
  GI50: > 100 µM (inactive)
OVCAR-5
  GI50: > 100 µM (inactive)
PC-3
  GI50: > 100 µM (inactive)
RPMI-8226
  GI50: > 100 µM (inactive)
RXF 393
  GI50: > 100 µM (inactive)
SF-268
  GI50: > 100 µM (inactive)
SF-295
  GI50: > 100 µM (inactive)
SF-539
  GI50: > 100 µM (inactive)
SK-MEL-28
  GI50: > 100 µM (inactive)
SK-MEL-2
  GI50: > 100 µM (inactive)
SK-MEL-5
  GI50: > 100 µM (inactive)
SK-OV-3
  GI50: > 100 µM (inactive)
SN12C
  GI50: > 100 µM (inactive)
SNB-19
  GI50: > 100 µM (inactive)
SW-620
  GI50: > 100 µM (inactive)
T47D
  GI50: > 100 µM (inactive)
TK-10
  GI50: > 100 µM (inactive)
U-251
  GI50: > 100 µM (inactive)
UACC-257
  GI50: > 100 µM (inactive)
UACC-62
  GI50: > 100 µM (inactive)
UO-31
  GI50: > 100 µM (inactive)

## CC(C)CC(NC(=O)OC(C)(C)C)C(=O)N1CCCC1C(=O)OCc1ccccc1 (stereo not drawn) (Boc-Leu-Pro-OBn; configuration not given here)
786-0
  GI50: > 100 µM (inactive)
A498
  GI50: > 100 µM (inactive)
A549
  GI50: > 100 µM (inactive)
ACHN
  GI50: > 100 µM (inactive)
BT-549
  GI50: > 100 µM (inactive)
CAKI-1
  GI50: > 100 µM (inactive)
COLO 205
  GI50: > 100 µM (inactive)
DU-145
  GI50: > 100 µM (inactive)
EKVX
  GI50: > 100 µM (inactive)
HCT-116
  GI50: > 100 µM (inactive)
HCT-15
  GI50: 63.4 µM
HOP-92
  GI50: > 100 µM (inactive)
HT-29
  GI50: 41.4 µM (inactive)
IGROV-1
  GI50: > 100 µM (inactive)
K562
  GI50: 35.2 µM (inactive)
KM12
  GI50: > 100 µM (inactive)
LOX IMVI
  GI50: 40.4 µM (inactive)
M14
  GI50: 99.3 µM (inactive)
MCF7
  GI50: 67.8 µM (inactive)
MDA-MB-231
  GI50: > 100 µM (inactive)
MDA-MB-435
  GI50: > 100 µM (inactive)
MDA-N
  GI50: > 100 µM (inactive)
Malme-3M
  GI50: > 100 µM (inactive)
NCI-H226
  GI50: > 100 µM (inactive)
NCI-H23
  GI50: > 100 µM (inactive)
NCI-H522
  GI50: > 100 µM (inactive)
NCI/ADR-RES
  GI50: > 100 µM (inactive)
OVCAR-3
  GI50: > 100 µM (inactive)
OVCAR-4
  GI50: > 100 µM (inactive)
OVCAR-5
  GI50: > 100 µM (inactive)
OVCAR-8
  GI50: > 100 µM (inactive)
PC-3
  GI50: > 100 µM (inactive)
RXF 393
  GI50: > 100 µM (inactive)
SF-268
  GI50: > 100 µM (inactive)
SF-295
  GI50: > 100 µM (inactive)
SF-539
  GI50: > 100 µM (inactive)
SK-MEL-28
  GI50: 76.7 µM (inactive)
SK-MEL-2
  GI50: > 100 µM (inactive)
SK-MEL-5
  GI50: > 100 µM (inactive)
SK-OV-3
  GI50: > 100 µM (inactive)
SN12C
  GI50: > 100 µM (inactive)
SNB-19
  GI50: > 100 µM (inactive)
SNB-75
  GI50: > 100 µM (inactive)
SR
  GI50: 15.3 µM (inactive)
SW-620
  GI50: > 100 µM (inactive)
T47D
  GI50: > 100 µM (inactive)
TK-10
  GI50: > 100 µM (inactive)
U-251
  GI50: > 100 µM (inactive)
UACC-257
  GI50: > 100 µM (inactive)
UACC-62
  GI50: > 100 µM (inactive)
UO-31
  GI50: 75 µM (inactive)
